Reference: US5298616A, “Sulfated O-polysaccharide-trehaloses” (Hoffmann-La Roche Inc., priority 1990, dated 1994)

What was measured:
thrombin = thrombin (Homo sapiens, UniProt P00734); test: Inhibition of Thrombin in the Chromogenic Substrate Assay; assay type: biochemical; settings: amidolytic activity reduced by 50% vs plasma control; anti-thrombin III, S-2238
Method: (§1) The blood coagulation-inhibiting activity was determined as follows:
The buffer solution used consisted of 50 mM Tris buffer, 180 mM NaCl, 7.5 mM EDTA Na2, 1% PEG 6000 and 0.02% Tween 80, pH 8.4. The sample consisted of 50 μl of buffer, 30 μl of anti-thrombin Ill (1 U/ml), Kabi Diagnostics) and 20 μl of plasma which contained various concentrations of test compounds. 30 μl of sample solution and 20 μl of water with 180 μl of thrombin were added to the test cuvette in the automatic analyzer. […] The liberation of pNA (p-nitroaniline) was followed during 60 seconds at 405 nm in 10 second intervals in comparison to water as the blank.

citrated human plasma = test: aPTT (activated partial thromboplastin time) Test; assay type: biochemical; settings: concentration which doubles the coagulation time vs control
Method: as §1
aPTT (activated partial thromboplastin time) Test (see Walenga et al., CRC Critical Reviews in Laboratory Sciences 22 (4) 361-389 (1986)): 100 μl of citrated human plasma, which contains various concentrations of test compound, is incubated at 37° C. for 8 minutes with 100 μl of Activated Thrombofax (Ortho Diagnostics, Raritan, N.J., U.S.A.). 100 μl of prewarmed 25 mM calcium chloride solution are then added and the coagulation time is measured in a Fibrometer Coagulation Timer (Becton Dickinson, Basle).
(§2) The activity of the test compound is given as the IC50, which is that concentration [μg/ml] which leads to a coagulation time which is double the control value.

rat smooth muscle cells = test: anti-proliferative activity in cell cultures; assay type: cell-based; settings: for Anti-proliferative activity % inhibition: 100 μg/ml test substance, 7 days, vs non-inhibited growth
Method: The anti-proliferative activity of the substances was determined in cell cultures as follows: rat smooth muscle cells (cultivated in DMEM with 10% FCS at 37° C. and 5% CO2) were seeded in 24 well cell culture plates with a density of 8×10^3 cells/well. After 4 hours the number of adhered cells was determined and the substances to be tested ([…]) were added. Cells to which no substance was added served as a comparison and heparin (100 μg/ml) served as a positive control. The cells were incubated for 7 days and then the cell number was determined. The antiproliferative activity of the individual substances was calculated as the % inhibition in comparison to non-inhibited growth: [formula] wherein cell number(d=O) cell number after 4 h cell number(-)=cell number to which no test
substances was added, after 7 days.
cell number(inhib)=cell number with
100 μg/ml of the test substance.

Factor Xa [1] = target: T1, Factor Xa (Bos taurus, UniProt P00743); test: Inhibition of Factor Xa in the Chromogenic Substrate Assay; assay type: biochemical; settings: amidolytic activity reduced by 50% vs plasma control; S-2222
T1 sequence (P00743 234-492 limits assumed): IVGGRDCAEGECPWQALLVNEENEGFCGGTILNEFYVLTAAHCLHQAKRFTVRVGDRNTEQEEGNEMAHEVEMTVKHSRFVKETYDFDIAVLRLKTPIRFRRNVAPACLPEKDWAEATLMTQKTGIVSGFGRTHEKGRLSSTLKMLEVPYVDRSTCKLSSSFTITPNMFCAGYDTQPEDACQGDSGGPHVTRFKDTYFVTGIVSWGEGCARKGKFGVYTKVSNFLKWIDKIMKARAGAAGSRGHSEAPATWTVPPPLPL
Method: as §1
Inhibition of Thrombin or Factor Xa in the Chromogenic Substrate Assay (Teien et al., Thrombosis Research 10, 399-410 (1977)): The test was performed in a Cobas-Bio centrifugal automatic spectrophotometer. The buffer solution used consisted of 50 mM Tris buffer, 180 mM NaCl, 7.5 mM EDTA Na2, 1% PEG 6000 and 0.02% Tween 80, pH 8.4. The sample consisted of 50 μl of buffer, 30 μl of anti-thrombin Ill (1 U/ml), Kabi Diagnostics) and 20 μl of plasma which contained various concentrations of test compounds. 30 μl of sample solution and 20 μl of water with 180 μl of thrombin were added to the test cuvette in the automatic analyzer. After incubation at 37° C. for 240 seconds 60 μl of S-2238 (H-D-Phe-Pip-Arg-NH.pNA, Kabi Diagnostics, Mondal, Sweden, 0.75 mM in water) and 20 μl of water were added. The liberation of pNA (p-nitroaniline) was followed during 60 seconds at 405 nm in 10 second intervals in comparison to water as the blank. The inhibitory activity is given as the IC50, which is the concentration [μg/ml] at which the amidolytic activity of thrombin is reduced by 50% in comparison to the plasma control value.
The inhibition of Factor Xa was measured in the same manner using a solution of Factor Xa (2.8 nkat/ml and 2 mM S-2222 (Bz-CO-Ile-Glu-Arg-NH.pNA, Kabi Diagnostics) in water in place of thrombin and, respectively, S-2238.

Factor Xa [2] = target: T1, Factor Xa; test: anti-Xa Clotting Assay; assay type: biochemical; settings: concentration which doubles the coagulation time vs control; citrated plasma
Method: as §1
anti-Xa Clotting Assay: 25 μl of citrated plasma having various concentrations of test compound are mixed with 75 μl of Factor Xa (Diagnostic Reagents, Thame, Oxon, Great Britain) diluted 1:100 in 0.63% citrate buffer (pH 7.3) which contains 41 mM imidazole, 82 mM NaCl and 0.1% albumin. After warming to 37° C. for 2 minutes 200 μl of a 1:1 mixture of Factor X Deficient Plasma (Diagnostic Reagents) and Platelet Substitute (Diagnostic Reagents) are added and the mixture is incubated at 37° C. for 20 seconds. After the addition of 100 μl of prewarmed 50 mM calcium chloride solution the coagulation time is measured in a Fibrometer.
as §2

Row | Substance | Anti-coagulation activity IC50, Amidolytic activity Thrombin (thrombin) [mg/L] | Anti-coagulation activity IC50, Coagulation inhibition aPTT (citrated human plasma) [mg/L] | Anti-proliferative activity % inhibition (rat smooth muscle cells) [%] | Anti-coagulation activity IC50, Amidolytic activity F.Xa (Factor Xa [1]) [mg/L] | Anti-coagulation activity IC50, Coagulation inhibition Xa (Factor Xa [2]) [mg/L] | anti-proliferative activity (rat smooth muscle cells; result in words)
1 | sulphated 4-O-(β-D-glucopyranosyl) -α,α-D-trehalose [Example 2C] | > 1000 | 40 | 38 | > 1000 | 115 | 
2 | sulphated 4-O -(β-D-maltotriosyl)-α,α-D-trehalose [Example 4C] | > 1000 | 11 | 64 | > 1000 | 32 | 
3 | Heparin [reference compound] | 1.9 | 1.2 |  | 2.7 | 0.6 | anti-proliferatively active
4 | sulphated 4-O-(β-D-cellobiosyl)-α,α-D-trehalose [Example 5C] | > 1000 | 33 | 39 | > 1000 | 69 | 
5 | sulphated 4,4'-bis -O-(β-D-glucopyranosyl)-α,α-D-trehalose [Example 7C] | > 1000 | 13.5 | 49 | > 1000 | 34 | 
6 | sulphated 4,4'-bis-O-(β-D-maltosyi)-α,α-D-trehalose [Example 6D] | > 1000 | 14.5 | 67 | 900 | 28.5 | 
7 | sulphated 4-O-(α-D-maltotriosyl)-α,α-D-trehalose [Example 1G] | > 1000 | 11 | 57 | 960 | 31 | 
8 | sulphated 4-O-(β-D-maltosyl)-α,α-D-trehalose [Example 3C] | > 1000 | 12 | 59 | > 1000 | 33.5 | 
